Assay results as given in patent publication US8168668B2, “Compounds” (AstraZeneca AB, priority 2005, dated 2012).
pEC50, pIC50: −log10 of the molar value. Converted amounts (≈) assume the structure as drawn.

Experiments:
[1] = biological target: T1, hVR1 (Homo sapiens, UniProt Q8NER1); experiment: hVR1 FLIPR (Fluorometric Image Plate Reader) screening assay; assay type: cell-based; conditions: inhibition of capsaicin-induced intracellular calcium increase
T1 construct: expressed in transfected cells
Procedure: 1. hVR1 FLIPR (Fluorometric Image Plate Reader) Screening Assay
Transfected CHO cells, stably expessing hVR1 (15,000 cells/well) are seeded in 50 ul media in a black clear bottom 384 plate (Greiner) and grown in a humidified incubator (37° C., 2% CO2), 24-30 hours prior to experiment.
Subsequently, the media is removed from the cell plate by inversion and 2 μM Fluo-4 is added using a multidrop (Labsystems). Following the 40 minutes dye incubation in the dark at 37° C. and 2% CO2, the extracellular dye present is washed away using an EMBLA (Scatron), leaving the cells in 40 ul of assay buffer (1×HBSS, 10 mM D-Glucose, 1 mM CaCl2, 10 mM HEPES, 10×7.5% NaHCO3 and 2.5 mM Probenecid).
FLIPR Assay—IC50 Determination Protocol
For IC50 determinations the fluorescence is read using FLIPR filter 1 (em […]). A is cellular baseline recording is taken for 30 seconds, followed by a 20 μl addition of 10, titrated half-log concentrations of the test compound, yielding cellular concentration ranging from 3 μM to 0.1 nM. Data is collected every 2 seconds for a further 5 minutes prior to the addition of a VR1 agonist solution: 20-50 nM solution of capsaicin by the FLIPR pipettor. The FLIPR continues to collect data for a further 4 minutes. Compounds having antagonistic properties against the hVR1 will inhibit the increase in intracellular calcium in response to the capsaicin addition. This consequently leading to a reduction in fluorescence signal and providing a reduced fluorescence reading, compared with no compound, buffer controls. Data is exported by the FLIPR program as a sum of fluorescence calculated under the curve upon the addition of capsaicin. Maximum inhibition, Hill slope and IC50 data for each compound are generated. […]

[2] = aqueous solubility test; assay type: physicochemical; conditions: aqueous medium, pH 7.4, aqueous buffer
[3] = test system: FCA-induced heat hyperalgesia; experiment: Freund's Complete Adjuvant (FCA) model, heat plantar test (paw withdrawal latency); assay type: in vivo; conditions: rat, orally administered
[4] = test system: carrageenan-induced heat hyperalgesia; experiment: Carrageenan model, heat plantar test (paw withdrawal latency); assay type: in vivo; conditions: rat, orally administered; for pEC50 / ED50: po; for pEC50 / ED50 / EC80: tested at Tmax; for Extrapolated Emax: non-linear regression; for Emax observed: reversal of heat hyperalgesia

T1 sequence (Q8NER1 whole entry): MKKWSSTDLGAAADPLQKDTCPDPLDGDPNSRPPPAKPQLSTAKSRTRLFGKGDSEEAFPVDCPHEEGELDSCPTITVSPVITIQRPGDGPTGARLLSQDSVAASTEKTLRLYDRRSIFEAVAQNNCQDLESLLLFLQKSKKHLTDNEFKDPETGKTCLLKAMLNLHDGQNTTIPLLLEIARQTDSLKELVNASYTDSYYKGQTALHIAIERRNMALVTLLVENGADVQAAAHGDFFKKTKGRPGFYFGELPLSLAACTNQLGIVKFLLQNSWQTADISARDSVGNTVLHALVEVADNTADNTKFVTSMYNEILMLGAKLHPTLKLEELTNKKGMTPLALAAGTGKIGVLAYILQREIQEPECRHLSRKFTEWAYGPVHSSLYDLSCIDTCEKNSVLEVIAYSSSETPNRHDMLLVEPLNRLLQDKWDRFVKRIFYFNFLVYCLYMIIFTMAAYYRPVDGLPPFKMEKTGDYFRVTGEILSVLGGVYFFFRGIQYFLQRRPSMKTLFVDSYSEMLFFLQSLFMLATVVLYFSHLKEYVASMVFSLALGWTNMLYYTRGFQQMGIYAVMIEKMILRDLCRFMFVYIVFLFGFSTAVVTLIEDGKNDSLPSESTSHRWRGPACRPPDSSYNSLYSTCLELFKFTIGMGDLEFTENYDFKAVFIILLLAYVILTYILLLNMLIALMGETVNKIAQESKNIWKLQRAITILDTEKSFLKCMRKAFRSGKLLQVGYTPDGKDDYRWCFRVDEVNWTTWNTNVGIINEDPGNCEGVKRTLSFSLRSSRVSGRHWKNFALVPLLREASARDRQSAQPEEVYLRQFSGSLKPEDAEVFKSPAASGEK

SMILES | pIC50 [1] | solubility [2] | also measured
CC(NC(=O)Cn1cnc2cccc([N+](=O)[O-])c21)c1ccc(C(F)(F)Cl)cc1 (stereo not shown) [Example 16, N-(1-{4-[chloro(difluoro)methyl]phenyl}ethyl)-2-(7-nitro-1H-benzimidazol-1-yl)acetamide] | 8.00 |  | 
CC(NC(=O)Cn1cnc2cccc([N+](=O)[O-])c21)c1ccc(OCC(F)F)nc1 (stereo not shown) [Example 9, N-{1-[6-(2,2-difluoroethoxy)pyridin-3-yl]ethyl}-2-(7-nitro-1H-benzimidazol-1-yl)acetamide] |  | 98 µM (≈ 39.7 µg/mL) | 
CC(C)Oc1ccc([C@H](C)NC(=O)Cn2cnc3cccc([N+](=O)[O-])c32)cc1 [Example 1, N-[(1S)-1-(4-isopropoxyphenyl)ethyl]-2-(7-nitro-1H-benzimidazol-1-yl)acetamide] | 9.00 |  | 
CCOc1ccc([C@H](C)NC(=O)Cn2cnc3cccc([N+](=O)[O-])c32)cc1 [Example 6, N-[(1S)-1-(4-ethoxyphenyl)ethyl]-2-(7-nitro-1H-benzimidazol-1-yl)acetamide] |  | 72 µM (≈ 26.5 µg/mL) | 
CC[C@H](C)Oc1ccc([C@H](C)NC(=O)Cn2cnc3cccc([N+](=O)[O-])c32)cc1 [Example 15, N-[(1S)-1-(4-{[(1S)-1-methylpropyl]oxy}phenyl)ethyl]-2-(7-nitro-1H-benzimidazol-1-yl)acetamide] | 9.00 |  | 
CC(C)Oc1ccc(C(C)NC(=O)Cn2cnc3cccc([N+](=O)[O-])c32)cn1 (stereo not shown) [Example 38, N-[1-(6-isopropoxypyridin-3-yl)ethyl]-2-(7-nitro-1H-benzimidazol-1-yl)acetamide] |  | 86 µM (≈ 33 µg/mL) | 
COCC(C)Oc1ccc([C@H](C)NC(=O)Cn2cnc3cccc([N+](=O)[O-])c32)cc1 (stereo partly drawn) [Example 5, N-{(1S)-1-[4-(2-methoxy-1-methylethoxy)phenyl]ethyl}-2-(7-nitro-1H-benzimidazol-1-yl)acetamide] |  | 97 µM (≈ 40 µg/mL) | 
C[C@H](NC(=O)Cn1cnc2cccc([N+](=O)[O-])c21)c1ccc(OCCF)cc1 [Example 3, N-{(1S)-1-[4-(2-fluoroethoxy)phenyl]ethyl}-2-(7-nitro-1H-benzimidazol-1-yl)acetamide] |  | 90 µM (≈ 34.8 µg/mL) | 
CC(NC(=O)Cn1cnc2cccc(Cl)c21)c1ncc(C(F)(F)F)cc1Cl (stereo not shown) [Example 31, 2-(7-chloro-1H-benzimidazol-1-yl)-N-{1-[3-chloro-5-(trifluoromethyl)pyridin-2-yl]ethyl}acetamide] |  | 87 µM (≈ 36.3 µg/mL) | 
CC(NC(=O)Cn1cnc2cccc([N+](=O)[O-])c21)c1ccc(C2CC2)cc1 (stereo not shown) [Example 40, N-[1-(4-cyclopropylphenyl)ethyl]-2-(7-nitro-1H-benzimidazol-1-yl)acetamide] | 8.52 |  | 
CC(NC(=O)Cn1cnc2cccc([N+](=O)[O-])c21)c1ccc(OC2CCCC2)c(F)c1 (stereo not shown) [Example 39, N-{1-[4-(cyclopentyloxy)-3-fluorophenyl]ethyl}-2-(7-nitro-1H-benzimidazol-1-yl)acetamide] | 9.00 |  | 
CC(NC(=O)Cn1cnc2cccc([N+](=O)[O-])c21)c1ccc(OC2CCN(C)CC2)c(C(F)(F)F)c1 (stereo not shown) [Example 46, N-{1-[4-[(1-Methylpiperidin-4-yl)oxy]-3-(trifluoromethyl)phenyl]ethyl}-2-(7-nitro-1H-benzimidazol-1-yl)acetamide] |  | 100 µM (≈ 50.5 µg/mL) | 
C#CC(C)Oc1ccc([C@H](C)NC(=O)Cn2cnc3cccc([N+](=O)[O-])c32)cc1 (stereo partly drawn) [Example 4, N-((1S)-1-{4-[(1-methylprop-2-yn-1-yl)oxy]phenyl}ethyl)-2-(7-nitro-1H-benzimidazol-1-yl)acetamide] | 8.52 |  | 
CCC(NC(=O)Cn1cnc2cccc([N+](=O)[O-])c21)c1ccc(C(F)(F)F)cn1 (stereo not shown) [Example 29, 2-(7-nitro-1H-benzimidazol-1-yl)-N-{1-[5-(trifluoromethyl)pyridin-2-yl]propyl}acetamide] |  | 92 µM (≈ 37.5 µg/mL) | 
CC(NC(=O)Cn1cnc2cccc([N+](=O)[O-])c21)c1ccc(OC(F)(F)F)cc1 (stereo not shown) [Example 36, 2-(7-nitro-1H-benzimidazol-1-yl)-N-{1-[4-(trifluoromethoxy)phenyl]ethyl}acetamide] | 8.05 |  | 
C[C@H](NC(=O)Cn1cnc2ccc(F)c(F)c21)c1ccc(C(C)(C)C)cc1 [Example 52, N-[(1S)-1-(4-tert-butylphenyl)ethyl]-2-(6,7-difluoro-1H-benzimidazol-1-yl)acetamide] |  |  | pEC50 ([3]; po, tested at Tmax): 5.80; ED50 ([3]; po, tested at Tmax): 120 µmol/kg; Extrapolated Emax ([3]; non-linear regression): >100%; Emax observed ([3]; reversal of heat hyperalgesia): 78%; EC80 ([3]; tested at Tmax): 4.6 µM; pEC50 [4]: 6.30; ED50 [4]: 37.4 µmol/kg; Extrapolated Emax [4]: >100%; Emax observed [4]: 74%; EC80 [4]: 1.4 µM
CC(NC(=O)Cn1cnc2cccc(C#N)c21)c1ccc(OC(CF)CF)cc1 (stereo not shown) [Example 24, 2-(7-cyano-1H-benzimidazol-1-yl)-N-(1-{4-[2-fluoro-1-(fluoromethyl)ethoxy]phenyl}ethyl)acetamide] |  | 94 µM (≈ 37.5 µg/mL) | 
C#Cc1ccc(C(C)NC(=O)Cn2cnc3cccc([N+](=O)[O-])c32)cc1 (stereo not shown) [Example 41, N-[1-(4-ethynylphenyl)ethyl]-2-(7-nitro-1H-benzimidazol-1-yl)acetamide] |  | 82 µM (≈ 28.6 µg/mL) | 
CC(NC(=O)Cn1cnc2cccc([N+](=O)[O-])c21)c1ccc(OCC(F)F)cc1 (stereo not shown) [Example 19, N-{1-[4-(2,2-difluoroethoxy)phenyl]ethyl}-2-(7-nitro-1H-benzimidazol-1-yl)acetamide] |  | 75 µM (≈ 30.3 µg/mL) | 
CC(NC(=O)Cn1cnc2cccc([N+](=O)[O-])c21)c1ccc(C(F)(F)F)cn1 (stereo not shown) [Example 30, 2-(7-nitro-1H-benzimidazol-1-yl)-N-{1-[5-(trifluoromethyl)pyridin-2-yl]ethyl}acetamide] |  | 97 µM (≈ 38.2 µg/mL) | 
CC(NC(=O)Cn1cnc2cccc([N+](=O)[O-])c21)c1ccc(C(F)(F)F)cc1 (stereo not shown) [Example 37, 2-(7-nitro-1H-benzimidazol-1-yl)-N-{1-[4-(trifluoromethyl)phenyl]ethyl}acetamide] | 8.22 |  | 
C#Cc1ccc(C(C)NC(=O)Cn2cnc3cccc(Cl)c32)cc1 (stereo not shown) [Example 42, 2-(7-chloro-1H-benzimidazol-1-yl)-N-[1-(4-ethynylphenyl)ethyl]acetamide] |  | 77 µM (≈ 26 µg/mL) | 
CC(NC(=O)Cn1cnc2cccc([N+](=O)[O-])c21)c1ccc(OC(F)(F)C(F)F)cc1 (stereo not shown) [Example 22, 2-(7-nitro-1H-benzimidazol-1-yl)-N-{1-[4-(1,1,2,2-tetrafluoroethoxy)phenyl]ethyl}acetamide] | 8.30 |  | 
CC(NC(=O)Cn1cnc2cccc([N+](=O)[O-])c21)c1ccc(OCC(F)(F)F)cc1 (stereo not shown) [Example 14, 2-(7-nitro-1H-benzimidazol-1-yl)-N-{1-[4-(2,2,2-trifluoroethoxy)phenyl]ethyl}acetamide] |  | 63 µM (≈ 26.6 µg/mL) | 
CC(C)Oc1ccc(C(C)NC(=O)Cn2cnc3cccc(Cl)c32)cn1 (stereo not shown) [Example 35, 2-(7-chloro-1H-benzimidazol-1-yl)-N-[1-(6-isopropoxypyridin-3-yl)ethyl]acetamide] |  | 100 µM (≈ 37.3 µg/mL) | 
CC(NC(=O)Cn1cnc2cccc([N+](=O)[O-])c21)c1ccc(OC2CCCC2)nc1 (stereo not shown) [Example 12, N-{1-[6-(cyclopentyloxy)pyridine-3-yl]ethyl}-2-(7-nitro-1H-benzimidazol-1-yl)acetamide] | 8.30 |  | 
CC(COc1cccc(C(F)(F)F)c1)NC(=O)Cn1cnc2cccc([N+](=O)[O-])c21 (stereo not shown) [Example 48, N-{1-methyl-2-[3-(trifluoromethyl)phenoxy]ethyl}-2-(7-nitro-1H-benzimidazol-1-yl)acetamide] | 8.15 |  | 
C[C@H](NC(=O)Cn1cnc2cccc([N+](=O)[O-])c21)c1ccc(OC(CF)CF)cc1 [Example 2, N-((1S)-1-{4-[2-fluoro-1-(fluoromethyl)ethoxy]phenyl}ethyl)-2-(7-nitro-1H-benzimidazol-1-yl)acetamide] |  |  | pEC50 [4]: 6.98; ED50 [4]: 1.3 µmol/kg; Extrapolated Emax [4]: 79%; Emax observed [4]: 79%; EC80 [4]: 0.17 µM
CO[C@@H](C)COc1ccc(C(C)NC(=O)Cn2cnc3cccc([N+](=O)[O-])c32)cc1C(F)(F)F (stereo partly drawn) [Example 47, N-{1-[4-{[(2S)-2-Methoxypropyl]oxy}-3-(trifluoromethyl)phenyl]ethyl}-2-(7-nitro-1H-benzimidazol-1-yl)acetamide] | 8.10 |  | 
CC(NC(=O)Cn1cnc2cccc([N+](=O)[O-])c21)c1ncc(C(F)(F)F)cc1Cl (stereo not shown) [Example 32, N-{1-[3-chloro-5-(trifluoromethyl)pyridin-2-yl]ethyl}-2-(7-nitro-1H-benzimidazol-1-yl)acetamide] |  | 87 µM (≈ 37.2 µg/mL) | 
